The record followed here is patent publication US9944598B2, “Mono- or di-substituted indole derivatives as dengue viral replication inhibitors” (priority 2014, dated 2018).

As usually defined, the EC50 is the concentration that produces a half-maximal response. The term CC50 denotes the concentration giving 50% cytotoxicity.

Common to all, as to format: cell-based
The test system of one data set is DENV-4 strain H241. Description: Tetravalent RT-qPCR assay Protocol A, serotype 4 H241. The conditions noted are these: Dengue virus, DENV4, 72 h, RT-qPCR serotype 4 H241, Vero cells, 3 days. The protocol: (§1) The antiviral activity of the compounds of the invention was tested against DENV-1 strain TC974#666 (NCPV), DENV-2 strain 16681, DENV-3 strain H87 (NCPV) and DENV-4 strains H241 (NCPV) and EDEN (SG/06K2270DK1/2005; GenBank accession number QG398256) in a RT-qPCR assay. Therefore, Vero cells were infected with either DENV-1, or -2, or -3, or -4 in the presence or absence of test compounds. At day 3 post-infection, the cells were lysed and cell lysates were used to prepare cDNA of both a viral target (the 3′UTR of DENV; table 2) and a cellular reference gene (β-actin, table 2). Subsequently, a duplex real time PCR was performed on a Lightcycler480 instrument. The generated Cp value is inversely proportional to the amount of RNA expression of these targets. Inhibition of DENV replication by a test compound result in a shift of Cp's for the 3′UTR gene. On the other hand, if a test compound is toxic to the cells, a similar effect on β-actin expression will be observed. The comparative ΔΔCp method is used to calculate EC50, which is based on the relative gene expression of the target gene (3′UTR) normalized with the cellular housekeeping gene (β-actin). In addition, CC50 values were determined based on the Cp values acquired for the housekeeping gene β-actin.
(§2) The culture medium consisted of minimal essential medium supplemented with 2% of heat-inactivated fetal calf serum, 0.04% gentamycin (50 mg/mL) and 2 mM of L-glutamine. Vero cells, obtained from ECACC, were suspended in culture medium and 75 μL/well was added in 96-well plates (10000 cells/well), which already contain the antiviral compounds. Typically, these plates contain a 4-fold serial dilution of 9 dilution steps of the test compound at 200 times the final concentration in 100% DMSO (500 nL; final concentration range: 25 μM-0.00038 μM). In addition, each plate contains wells which are assigned as virus controls (containing cells and virus in the absence of compound) and cell controls (containing cells in the absence of virus and compound). Once the cells were added in the plates, the plates were incubated in a fully humidified incubator (37° C., 5% CO2) until the next day. Then, DENV-1 strain TC974#666, DENV-2 strain 16681, DENV-3 strain H87 or DENV-4 strains H241 or EDEN were added. […] In parallel, 25 μL of culture medium was added to the cell controls. Next, the plates were incubated for 3 days in a fully humidified incubator (37° C., 5% CO2). After 3 days, the supernatant was removed from the wells and the cells were washed twice with ice-cold PBS (˜100 μL). The cell pellets within the 96-well plates were stored at −80° C. for at least 1 day. Next, RNA was extracted using the Cells-to-CT™ lysis kit, according to the manufacture's guideline (Applied Biosystems). The cell lysates can be stored at −80° C. or immediately used in the reverse transcription step.
(§3) In preparation of the reverse transcription step, mix A (table 3A) was prepared and 7.57 μL/well was dispensed in a 96-well plate. After addition of 5 μL of the cell lysates, a five minute denaturation step at 75° C. was performed (table 3B). Afterwards, 7.43 μL of mix B was added (table 3C) and the reverse transcription step was initiated (table 3D) to generate cDNA.
(§4) Finally, a RT-qPCR mix was prepared, mix C (table 4A), dispensed in 96-well LightCycler qPCR plates to which 3 μL of cDNA was added and the qPCR was performed according to the conditions in table 4B on a LightCycler 480.
(§5) Using the LightCycler software and an in-house LIMS system, dose response curves for each compound were calculated and the half maximal effective concentration (EC50) and the half maximal cytotoxic concentration (CC50) were determined (Tables 6-9).

Data set [1] can be described thus: in vitro. The conditions noted are these: African green monkey. As for the experimental part:
as §1, §2, §5

In data set [2] the test system is DENV-4 strain EDEN (SG/06K2270DK1/2005). Description: Tetravalent RT-qPCR assay Protocol A, serotype 4 EDEN. The conditions noted are these: Dengue virus, DENV4, 72 h, RT-qPCR serotype 4 EDEN, Vero cells, 3 days. The protocol:
as §1, §2, §3, §4, §5

The next data set has as its system uninfected Vero cells. Description: in vitro. The conditions noted are these: African green monkey. The protocol:
(§6) Potential cytotoxic effects of the compounds were evaluated in uninfected Vero cells. Cells were seeded at 4×10^4 cells/well in a 96-well plate in the presence of two-, three- or five-fold serial dilutions (ranging from 50 μg/mL-0.0038 μg/mL, 50 μg/mL-0.0076 μg/mL, and 50 μg/mL-0.00013 μg/mL, respectively) of compound and incubated for 4 to 7 days. Culture medium was discarded and 100 μL 3-(4,5-dimethylthiazol-2-yl)-5-(3-carboxymethoxyphenyl)-2-(4-sulfophenyl)-2H-tetrazolium/phenazinemethosulfate (MTS/PMS; Promega, Leiden, The Netherlands) in PBS was added to each well. Following a 2-hour incubation period at 37° C., the optical density was determined at 498 nm. Cytotoxic activity was calculated using the following formula: % cell viability=100×(ODCompound/ODCC), where ODCompound and ODCC correspond to the optical density at 498 nm of the uninfected cell cultures treated with compound and that of uninfected, untreated cell cultures, respectively. The 50% cytotoxic concentration (i.e., the concentration that reduces the total cell number with 50%; CC50) was calculated using linear interpolation (Tables 7 and 8).

The nature of data set [3]: in vitro. The conditions noted are these: African green monkey, CC50. As for the experimental part:
as §6

For the next data set, the system named is DENV-1 strain TC974#666. Description: Tetravalent RT-qPCR assay Protocol A, serotype 1. Particulars: Dengue virus, DENV1, 72 h, RT-qPCR serotype 1 TC974#666, Vero cells, 3 days. The protocol: as §1, §2, §3, §4, §5
Data set [4] in a line: in vitro. The conditions noted are these: African green monkey, CC50. This is another data set of the same source.
A further data set relates to DENV-2 strain 16681. Description: Tetravalent RT-qPCR assay Protocol A, serotype 2. Particulars: Dengue virus, DENV2, 72 h, RT-qPCR serotype 2 16681, Vero cells, 3 days. As for the experimental part:
as §1, §2, §3, §4, §5
On the technique in general: Quantitative PCR measures a nucleic acid by following its amplification.

For `COc1cc(NC(C(=O)c2c[nH]c3cc(F)c(F)cc23)c2ccc(Cl)cc2OC)cc(OCCO)c1` (single isomer, unassigned) [Compound 9A, 2-(4-chloro-2-methoxyphenyl)-1-(5,6-difluoro-1H-indol-3-yl)-2-((3-(2-hydroxyethoxy)-5-methoxyphenyl)amino)ethanone], the EC50 with DENV-4 strain H241 was determined as 0.24 µM; in data set [2], 0.0047 µM; in the data set with DENV-1 strain TC974#666, 0.005 µM; in the data set with DENV-2 strain 16681, 0.00079 µM. Moreover, the CC50 at 3 days in the data set “in vitro [1]” was 4.7 µM. Also, the values for the half-maximal cytotoxic concentration (CC50) with uninfected Vero cells, in the data set “in vitro [3]” and in the data set “in vitro [4]” were 12 µM, 7.9 µM and 3.9 µM, respectively.
For `COc1cc(NC(C(=O)c2c[nH]c3c(F)cc(C)cc23)c2ccc(Cl)cc2OC)cc(OCCO)c1` (single isomer, unassigned) [Compound 10A, 2-(4-chloro-2-methoxyphenyl)-1-(7-fluoro-5-methyl-1H-indol-3-yl)-2-((3-(2-hydroxyethoxy)-5-methoxyphenyl)amino)ethanone], the EC50 came out at 0.32 µM in the data set with DENV-4 strain H241, 0.0086 µM in data set [2], 0.014 µM in the data set with DENV-1 strain TC974#666 and 0.0032 µM in the data set with DENV-2 strain 16681. For the same molecule, it took 4.1 µM to reach half-maximal cytotoxicity in “in vitro [1]” (CC50 at 3 days). Also, the CC50 amounted to 12 µM with uninfected Vero cells, 8 µM in “in vitro [3]” and 4.5 µM in “in vitro [4]”.
